Results taken from ChEMBL document CHEMBL4020775, “QSAR studies of the bioactivity of hepatitis C virus (HCV) NS3/4A protease inhibitors by multiple linear regression (MLR) and support vector machine (SVM)” (Bioorg Med Chem Lett, 2017).

Legend:
[1] = Inhibition of HCV NS3/4A protease; design: species or system Hepacivirus hominis
[2] = Inhibition of HCV NS3/4A protease using AcDTEDVVP(Nva)-O-PAP as substrate pretreated with substrate for 3 mins followed by enzyme addition measured after 60 mins by spectrophotometric method; design: species or system Hepacivirus hominis

Row | Structure (SMILES) | IC50 [1] [nM] | Ki [2] [nM]
1 | CCC[C@H](NC(=O)[C@@H]1[C@H]2CCC[C@H]2CN1C(=O)[C@@H](NC(=O)[C@@H](NC(=O)c1cnccn1)C1CCCCC1)C(C)(C)C)C(=O)C(=O)NC1CC1 [TELAPREVIR] | 1030 | –
2 | C=C[C@@H]1C[C@]1(NC(=O)[C@@H]1C[C@@H](Oc2ncc(OC)c3ccc(Cl)cc23)CN1C(=O)[C@@H](NC(=O)OC(C)(C)C)C(C)(C)C)C(=O)NS(=O)(=O)C1CC1 [ASUNAPREVIR] | 2.6 | –
3 | CC(C)(C)NC(=O)N[C@H](C(=O)N1C[C@H]2[C@@H]([C@H]1C(=O)NC(CC1CCC1)C(=O)C(N)=O)C2(C)C)C(C)(C)C (some centres undefined) [BOCEPREVIR] | – | 14
4 | Cc1cnc(C(=O)N[C@H]2CCCCC/C=C\[C@@H]3C[C@@]3(C(=O)NS(=O)(=O)C3CC3)NC(=O)[C@@H]3C[C@@H](Oc4nc5ccccc5c5ccccc45)CN3C2=O)cn1 [PARITAPREVIR] | 0.18 | –
